SMILES strings stand for the structures. ± gives the expanded uncertainty stated by the source.

For this series the following is noted: 298 K; 101.33 kPa; Liquid; Vibrating tube method.
`Cc1ccccc1` [toluene]: the mass density – broadly, the mass of a sample divided by its volume – came out at 857.606 ± 0.19 kg/m3. Regarding `OCCOCCOCCO` [triethylene glycol], the mass density is listed as 1116.05 ± 0.34 kg/m3. The figure for `CCCCCCCCCC` [decane] is 722.439 ± 0.28 kg/m3; for `OCCOCCO` [diethylene glycol] it is 1109.16 ± 0.34 kg/m3.

The values above are taken from the NIST ThermoML archive (doi:10.1016/j.fluid.2014.12.027).
